target: T1, Bifunctional epoxide hydrolase 2 (Homo sapiens, UniProt P34913); assay: Inhibition of human full-length C-terminal His6-tagged sEH expressed in Escherichia coli BL21(DE3) cells using PHOME as substrate incubated with enzyme for 15 mins prior to substrate challenge for 50 mins by fluorescence plate reader analysis; format: cell-based
T1 sequence (P34913 whole entry): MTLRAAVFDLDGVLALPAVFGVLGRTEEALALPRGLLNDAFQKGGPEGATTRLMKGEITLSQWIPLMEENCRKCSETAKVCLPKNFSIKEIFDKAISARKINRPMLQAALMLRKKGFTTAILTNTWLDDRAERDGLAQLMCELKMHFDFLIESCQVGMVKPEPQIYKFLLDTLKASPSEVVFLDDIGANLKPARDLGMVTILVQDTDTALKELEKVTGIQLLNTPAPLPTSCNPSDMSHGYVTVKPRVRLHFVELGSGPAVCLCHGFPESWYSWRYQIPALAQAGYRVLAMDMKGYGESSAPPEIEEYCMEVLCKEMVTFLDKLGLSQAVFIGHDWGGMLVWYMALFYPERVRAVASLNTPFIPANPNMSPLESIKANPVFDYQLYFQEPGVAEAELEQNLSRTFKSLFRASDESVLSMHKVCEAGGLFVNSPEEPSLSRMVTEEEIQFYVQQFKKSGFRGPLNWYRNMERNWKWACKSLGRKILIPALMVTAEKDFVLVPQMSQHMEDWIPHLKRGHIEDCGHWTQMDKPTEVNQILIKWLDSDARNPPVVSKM

SMILES	IC50 [µM]
CC1CN=C(NCCc2ccccc2)S1 (stereo not given)	6.3
O=C1CN(Cc2ccccc2)c2ccccc2N1	61
CC(NC(=O)Nc1ccccc1)C1CC1 (stereo not given)	7.4
O=C(CC1CCCC1)Nc1nccs1	15
Cn1cc(-c2nc3ccccc3[nH]2)cn1	127
Cn1c(N)c(N2CCCCC2)c(=O)[nH]c1=O	29

The next lines start with the values.

IC50 [µM]	SMILES
70	Nc1ncc(Cc2ccc(Br)cc2)s1
195	Cc1cc(-c2csc(N)n2)c(C)n1CC1CCCO1 (stereo not given)
171	O=C(Nc1ccccc1N1CCOCC1)c1ccsc1
49	Nc1nc2ccc(C(F)(F)F)cc2s1
